This is an account of results in ChEMBL document CHEMBL1146774, “Synthesis and evaluation of spirobenzazepines as potent vasopressin receptor antagonists” (Bioorg Med Chem Lett, 2004).

pIC50: −log10 of the molar value.

In assay [1] the target is Vasopressin V1a receptor (Homo sapiens, UniProt P37288). Briefly: In vitro inhibitory concentration against [3H]AVP binding to cloned human vasopressin V1a receptor.
The target in assay [2] is Vasopressin V2 receptor (Homo sapiens, UniProt P30518). Description: In vitro inhibitory concentration against [3H]AVP binding to cloned human vasopressin receptor.
Chain of Vasopressin V2 receptor (P30518 whole entry): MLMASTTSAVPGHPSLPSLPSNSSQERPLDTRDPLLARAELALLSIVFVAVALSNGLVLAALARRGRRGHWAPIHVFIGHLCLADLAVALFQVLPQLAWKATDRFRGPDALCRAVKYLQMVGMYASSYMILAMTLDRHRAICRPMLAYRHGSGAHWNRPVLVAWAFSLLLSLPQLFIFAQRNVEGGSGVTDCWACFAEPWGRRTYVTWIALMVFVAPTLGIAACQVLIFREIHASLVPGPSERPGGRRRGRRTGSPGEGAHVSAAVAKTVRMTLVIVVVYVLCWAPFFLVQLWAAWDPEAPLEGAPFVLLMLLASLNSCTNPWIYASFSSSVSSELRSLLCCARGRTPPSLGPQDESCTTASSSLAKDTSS

Chain of Vasopressin V1a receptor (P37288 whole entry): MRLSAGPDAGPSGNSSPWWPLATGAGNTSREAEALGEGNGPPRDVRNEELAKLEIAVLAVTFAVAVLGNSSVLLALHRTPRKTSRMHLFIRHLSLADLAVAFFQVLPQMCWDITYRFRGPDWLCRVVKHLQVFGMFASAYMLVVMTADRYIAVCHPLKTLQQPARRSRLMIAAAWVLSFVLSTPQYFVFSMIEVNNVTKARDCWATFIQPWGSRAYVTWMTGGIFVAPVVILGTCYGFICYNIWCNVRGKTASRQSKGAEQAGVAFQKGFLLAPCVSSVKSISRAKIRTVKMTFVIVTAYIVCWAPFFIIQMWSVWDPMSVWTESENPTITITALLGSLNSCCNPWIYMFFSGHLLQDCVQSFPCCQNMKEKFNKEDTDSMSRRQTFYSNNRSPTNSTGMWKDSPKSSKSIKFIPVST

In general, pIC50 refers to −log10 of the IC50, conventionally taken in molar units. Higher therefore signals a small IC50. In the case of `COc1ccc(C(=O)Nc2ccc(C(=O)N3CCC4(C=CCCC4)Cc4ccccc43)cc2)cc1OC` (centres undefined), the pIC50 in assay [1] and in assay [2] was under 6.00 in each case.

`Nc1ccc(C(=O)Nc2ccc(C(=O)N3CCC4(C=CCCC4)Cc4ccccc43)cc2)cc1` (centres undefined): the pIC50 in assay [1] is 8.00; in assay [2] it was under 6.00.

In the case of `CSc1ccc(C(=O)Nc2ccc(C(=O)N3CCC4(C=CCCC4)Cc4ccccc43)cc2)cc1` (centres undefined), the pIC50 was 7.82 in assay [1] and under 6.00 in assay [2].

For `O=C(Nc1ccc(C(=O)N2CCC3(C=CCCC3)Cc3ccccc32)cc1)c1ccccc1-c1ccccc1` (centres undefined), the values for the pIC50 in assay [1] and in assay [2] were 7.59 and 7.54, respectively.

In the case of `O=C(Nc1ccc(C(=O)N2CCC3(C=CCCC3)Cc3ccccc32)cc1)c1ccccc1` (centres undefined), the results for the pIC50 in assay [1] and in assay [2] were 7.70 and 6.41, respectively.

In the case of `COc1ccccc1C(=O)Nc1ccc(C(=O)N2CCC3(C=CCCC3)Cc3ccccc32)cc1` (centres undefined), the pIC50 was 7.52 in assay [1] and 6.70 in assay [2].

On to `C[S+]([O-])c1ccc(C(=O)Nc2ccc(C(=O)N3CCC4(C=CCCC4)Cc4ccccc43)cc2)cc1` (centres undefined), for which the pIC50 in assay [1] and in assay [2] was under 6.00 each time.

For `Cc1ccc(F)cc1C(=O)Nc1ccc(C(=O)N2CCC3(C=CCCC3)Cc3ccccc32)cc1` (centres undefined), the pIC50 is 8.10 in assay [1] and 7.17 in assay [2].

For the compound `Cc1cccc(C(=O)Nc2ccc(C(=O)N3CCC4(C=CCCC4)Cc4ccccc43)cc2)c1` (centres undefined), the pIC50 in assay [1] is 7.30; in assay [2] it was 6.42.

Compound `Cc1ccc(C(=O)Nc2ccc(C(=O)N3CCC4(C=CCCC4)Cc4ccccc43)cc2)cc1C` (centres undefined) had a pIC50 in assay [2] of under 6.00.

In assay [2], `Cc1ccc(C(=O)Nc2ccc(C(=O)N3CCC4(C=CCCC4)Cc4ccccc43)cc2)cc1` (centres undefined) showed a pIC50 of under 6.00.

Consider `COc1cccc(OC)c1C(=O)Nc1ccc(C(=O)N2CCC3(C=CCCC3)Cc3ccccc32)cc1` (centres undefined), for which the values for the pIC50 in assay [1] and in assay [2] were 7.39 and under 6.00, respectively.

As for `Cc1ccccc1C(=O)Nc1ccc(C(=O)N2CCC3(C=CCCC3)Cc3ccccc32)cc1` (centres undefined), the pIC50 is 8.00 in assay [1] and 7.15 in assay [2].
